In brackets after ≈: the same amount, converted by molar mass. Where a name gives a salt, the structure may show the parent alone. Read-outs that look alike come from different tables or passages of the source.
Key:
[1] = test system: Streptococcus pneumoniae Park I; test: microbe, parasite or virus in culture; assay type: cell-based; conditions: Streptococcus pneumoniae; S. pneumoniae Park I; agar dilution; read-out: MIC
Procedure: (§1) Especially noteworthy is the improved activity against gram-negative bacteria for several derivatives when compared to the activity of OMT. […] The MIC's in Tables V and VI were determined by standard agar-dilution assays. The MIC's in Table VII were obtained using a conventional broth-dilution microtiter test.

[2] = test system: Streptococcus pyogenes C203; test: ED50 in mice experimentally infected with S. pyogenes C203 (Table VIII); assay type: in vivo
Procedure: The C-23 modified derivatives of OMT of this invention have shown in vivo antimicrobial activity against experimental infections. When two doses of test compound were administered to mice experimentally infected with a gram-positive bacterium, S. pyogenes C203, the activity observed was measured as an ED50 value [effective dose in mg/kg to protect 50% of the test animals: see Warren Wick, et al., J. Bacteriol. 81, 233-235 (1961)].

Pasteurella multocida = test: Protection of one-day-old chicks against Pasteurella multocida infection (Table IX); assay type: in vivo; conditions: subcutaneous 30 mg/kg × 2, 1 and 4 hours post-challenge
Procedure: The C-23 modified derivatives of OMT have also shown in vivo antibacterial activity against infections induced by gram-negative bacteria. Table IX summarizes the results of tests in which illustrative compounds were evaluated against Pasteurella infections in one-day-old chicks. The compounds were administered by subcutaneous injection at a dosage of 30 mg/kg, 1 and 4 hours post-challenge of the chicks with Pasteurella multocida (0.1 ml of a twenty-hour tryptose broth culture of an avian P. multocida given subcutaneously). In the tests, all ten non-medicated infected chicks died within 24 hours of Pasteurella challenge.

[3] = test system: Staphylococcus epidermidis EPI2; test: MIC, standard agar-dilution assay (Table V); assay type: cell-based; conditions: Staphylococcus epidermidis, EPI2
Procedure: as §1

[4] = test system: Staphylococcus aureus X1.1; test: MIC, standard agar-dilution assay (Table V); assay type: cell-based; conditions: Staphylococcus aureus, X1.1
Procedure: as §1

Escherichia coli EC14 = test: MIC, standard agar-dilution assay (Table V); assay type: cell-based; conditions: Escherichia coli, EC14
Procedure: as §1

[5] = test system: Staphylococcus aureus X400; test: MIC, standard agar-dilution assay (Table V); assay type: cell-based; conditions: Staphylococcus aureus, X400
Procedure: as §1

Shigella sonnei N9 = test: MIC, standard agar-dilution assay (Table V); assay type: cell-based
Procedure: as §1

[6] = test system: Streptococcus Group D X66; test: MIC, standard agar-dilution assay (Table V); assay type: cell-based
Procedure: as §1

[7] = test system: Klebsiella pneumoniae KAE; test: MIC, standard agar-dilution assay (Table V); assay type: cell-based; conditions: Klebsiella pneumoniae
Procedure: as §1

[8] = test system: Staphylococcus epidermidis EPI1; test: MIC, standard agar-dilution assay (Table V); assay type: cell-based; conditions: Staphylococcus epidermidis
Procedure: as §1

Streptococcus Group 9960 = test: MIC, standard agar-dilution assay (Table V); assay type: cell-based; conditions: GROUP9960
Procedure: as §1

Escherichia coli N10 = test: MIC, standard agar-dilution assay (Table V); assay type: cell-based; conditions: Escherichia coli, N10
Procedure: as §1

[9] = test system: Staphylococcus aureus V41; test: MIC, standard agar-dilution assay (Table V); assay type: cell-based; conditions: Staphylococcus aureus, V41
Procedure: as §1

[10] = test system: Staphylococcus aureus S13E; test: MIC, standard agar-dilution assay (Table V); assay type: cell-based; conditions: Staphylococcus aureus, S13E
Procedure: as §1

[11] = test system: Klebsiella pneumoniae X26; test: MIC, standard agar-dilution assay (Table V); assay type: cell-based; conditions: Klebsiella pneumoniae
Procedure: as §1

[12] = test system: Pasteurella hemolytica 22C; test: MIC, broth-dilution microtiter test (Table VII); assay type: cell-based; conditions: Pasteurella, P. hemolytica 22C, read-out: MIC
Procedure: as §1

[13] = test system: Pasteurella multocida 22A; test: MIC, broth-dilution microtiter test (Table VII); assay type: cell-based; conditions: Pasteurella multocida; P. multocida 22A; broth-dilution microtiter; read-out: MIC
Procedure: as §1

Mycoplasma hyorhinis = test: MIC, broth-dilution microtiter test (Table VII); assay type: cell-based
Procedure: as §1

[14] = test system: Pasteurella multocida 60A; test: MIC, broth-dilution microtiter test (Table VII); assay type: cell-based; conditions: Pasteurella multocida, 60A
Procedure: as §1

[15] = test system: Pasteurella hemolytica 41D; test: MIC, broth-dilution microtiter test (Table VII); assay type: cell-based; conditions: Pasteurella, P. hemolytica 41D, read-out: MIC
Procedure: as §1

[16] = test system: Pasteurella multocida 17E; test: MIC, broth-dilution microtiter test (Table VII); assay type: cell-based; conditions: Pasteurella multocida, 17E
Procedure: as §1

[17] = test system: Pasteurella hemolytica 23C; test: MIC, broth-dilution microtiter test (Table VII); assay type: cell-based; conditions: Pasteurella, P. hemolytica 23C, read-out: MIC
Procedure: as §1

Mycoplasma synoviae = test: MIC, broth-dilution microtiter test (Table VII); assay type: cell-based; conditions: Mycoplasmopsis synoviae
Procedure: as §1

Staphylococcus aureus = test: MIC, broth-dilution microtiter test (Table VII); assay type: cell-based; conditions: Staphylococcus aureus
Procedure: as §1

[18] = test system: Pasteurella multocida 68C; test: MIC, broth-dilution microtiter test (Table VII); assay type: cell-based; conditions: Pasteurella multocida
Procedure: as §1

[19] = test system: Pasteurella multocida 40G; test: MIC, broth-dilution microtiter test (Table VII); assay type: cell-based; conditions: Pasteurella multocida
Procedure: as §1

Streptococcus sp. 80 = test: MIC, broth-dilution microtiter test (Table VII); assay type: cell-based; conditions: Streptococcus sp. 80; broth-dilution microtiter; read-out: MIC
Procedure: as §1

Mycoplasma gallisepticum = test: MIC, broth-dilution microtiter test (Table VII); assay type: cell-based; conditions: Mycoplasmoides gallisepticum
Procedure: as §1

[20] = test system: Streptococcus pyogenes C203; test: MIC, standard agar-dilution assay (Table V); assay type: cell-based; conditions: Streptococcus pyogenes; S. pyogenes C203; agar dilution; read-out: MIC
Procedure: (§2) The MIC's in Tables V and VI were determined by standard agar-dilution assays. The MIC's in Table VII were obtained using a conventional broth-dilution microtiter test.

[21] = test system: Haemophilus influenzae R252; test: MIC, standard agar-dilution assay (Table V); assay type: cell-based; conditions: Haemophilus influenzae; H. influenzae R252, ampicillin-resistant strain; agar dilution; read-out: MIC
Procedure: as §2

Escherichia coli TEM = test: MIC, standard agar-dilution assay (Table V); assay type: cell-based; conditions: Escherichia coli
Procedure: as §2

[22] = test system: Haemophilus influenzae Holt; test: MIC, standard agar-dilution assay (Table V); assay type: cell-based; conditions: Haemophilus influenzae; H. influenzae Holt, ampicillin-sensitive strain; agar dilution; read-out: MIC
Procedure: as §2

[23] = C203, sc, mice, subcutaneous, doses given 1 and 4 hours postinfection, read-out: ED50, Subcutaneous

Structure (SMILES)	MIC [1] [µg/mL]	ED50 ([2]; C203, po, read-out: ED50, Oral) [mg/kg]	ED50 [2, 23] [mg/kg]	Number of deaths/number treated (Pasteurella multocida)	MIC [3] [µg/mL]	MIC [4] [µg/mL]	MIC (Escherichia coli EC14) [µg/mL]	MIC [5] [µg/mL]	MIC (Shigella sonnei N9) [µg/mL]	MIC [6] [µg/mL]	MIC [7] [µg/mL]	MIC (Streptococcus Group 9960) [µg/mL]	MIC (Escherichia coli N10) [µg/mL]	MIC [9] [µg/mL]	MIC [10] [µg/mL]	MIC [12] [µg/mL]	MIC [13] [µg/mL]	MIC [14] [µg/mL]	MIC [15] [µg/mL]	MIC [16] [µg/mL]	also measured
CCC1OC(=O)CC(O)C(C)C(OC2OC(C)C(O)C(N(C)C)C2O)C(CC=O)CC(C)C(=O)C=CC(C)=CC1CN (stereo not shown) [Compound 9, 23-Deoxy-23-amino-OMT]	1 (≈ 1.68 µM)	> 100	2.6	0/10	8 (≈ 13.4 µM)	8 (≈ 13.4 µM)	> 128	8 (≈ 13.4 µM)	> 128	8 (≈ 13.4 µM)	> 128	8 (≈ 13.4 µM)	> 128	8 (≈ 13.4 µM)	8 (≈ 13.4 µM)	12.5 (≈ 20.9 µM)	25 (≈ 41.9 µM)	6.25 (≈ 10.5 µM)	25 (≈ 41.9 µM)	6.25 (≈ 10.5 µM)	MIC ([8]; EPI1): 8 µg/mL (≈ 13.4 µM); MIC ([11]; X26): 16 µg/mL (≈ 26.8 µM); MIC (Mycoplasma hyorhinis): 12.5 µg/mL (≈ 20.9 µM); MIC [17]: 12.5 µg/mL (≈ 20.9 µM); MIC (Mycoplasma synoviae): 0.78 µg/mL (≈ 1.31 µM); MIC (Staphylococcus aureus): 12.5 µg/mL (≈ 20.9 µM); MIC ([18]; 68C): 12.5 µg/mL (≈ 20.9 µM); MIC ([19]; 40G): 12.5 µg/mL (≈ 20.9 µM); MIC (Streptococcus sp. 80): 1.56 µg/mL (≈ 2.61 µM); MIC (Mycoplasma gallisepticum): 0.78 µg/mL (≈ 1.31 µM); MIC [20]: 2 µg/mL (≈ 3.35 µM); MIC [21]: 1 µg/mL (≈ 1.68 µM); MIC (Escherichia coli TEM): > 128 µg/mL
CCC1OC(=O)CC(O)C(C)C(OC2OC(C)C(O)C(N(C)C)C2O)C(CC=O)CC(C)C(=O)C=CC(C)=CC1CNC(=O)[C@H](N)c1ccccc1 (single isomer, unassigned) [Compound 12, 23-Deoxy-23-N-(D-(-)-phenylglycyl)amino-OMT bis(trifluoroacetate) salt]	0.5	> 100	6.2	9/10	8	4	> 128	8	> 128	8	> 128	8	> 128	8	8	50	25	12.5	50	12.5	MIC ([8]; S. epidermidis EPI1, agar dilution, read-out: MIC): 4 µg/mL; MIC ([11]; K. pneumoniae X26, agar dilution, read-out: MIC): 16 µg/mL; MIC (Mycoplasma hyorhinis; M. hyorhinis, broth-dilution microtiter, read-out: MIC): > 50 µg/mL; MIC [17]: 50 µg/mL; MIC (Mycoplasma synoviae): 3.12 µg/mL; MIC (Staphylococcus aureus; S. aureus, broth-dilution microtiter, read-out: MIC): 6.25 µg/mL; MIC ([18]; P. multocida 68C, broth-dilution microtiter, read-out: MIC): 25 µg/mL; MIC ([19]; P. multocida 40G, broth-dilution microtiter, read-out: MIC): 25 µg/mL; MIC (Streptococcus sp. 80): 6.25 µg/mL; MIC (Mycoplasma gallisepticum): 3.12 µg/mL; MIC [20]: 0.5 µg/mL; MIC [22]: 16 µg/mL; MIC [21]: 16 µg/mL; MIC (Escherichia coli TEM): > 128 µg/mL
